Experimental data from US8415469B2, “Compounds and methods for kinase modulation, and indications therefor” (Plexxikon Inc., priority 2005, dated 2013).

Key:
Format in all cases: biochemical
[1] = target: T1, Itk (Homo sapiens, UniProt Q08881); experiment: AlphaScreen kinase assay, Itk; details: read-out: IC50, activity toward kinase Itk
T1 sequence (Q08881 1-620): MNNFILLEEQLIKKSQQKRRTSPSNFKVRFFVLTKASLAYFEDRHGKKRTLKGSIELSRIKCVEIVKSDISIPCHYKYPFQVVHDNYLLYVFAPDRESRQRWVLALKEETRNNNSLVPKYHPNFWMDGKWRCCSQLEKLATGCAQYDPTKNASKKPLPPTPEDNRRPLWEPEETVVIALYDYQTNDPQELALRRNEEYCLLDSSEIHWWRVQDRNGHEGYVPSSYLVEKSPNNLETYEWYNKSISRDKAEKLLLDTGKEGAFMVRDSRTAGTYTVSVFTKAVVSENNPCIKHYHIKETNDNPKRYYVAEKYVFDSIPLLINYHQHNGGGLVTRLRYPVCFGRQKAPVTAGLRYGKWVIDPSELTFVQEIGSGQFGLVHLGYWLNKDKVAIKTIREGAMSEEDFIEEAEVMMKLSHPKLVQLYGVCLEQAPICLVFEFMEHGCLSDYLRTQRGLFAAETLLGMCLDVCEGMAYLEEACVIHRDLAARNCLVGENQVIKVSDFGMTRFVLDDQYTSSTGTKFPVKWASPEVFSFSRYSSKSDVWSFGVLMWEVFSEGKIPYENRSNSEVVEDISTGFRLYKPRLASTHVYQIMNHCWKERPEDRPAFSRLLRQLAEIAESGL
Description: AlphaScreen assay was used to screen additional kinases. The assay is similarly dependent on the phosphorylation of a peptide substrate. In this assay, an antibody that recognizes phosphorylated substrate is bound to an acceptor bead. The peptide substrate is attached to biotin, which binds to a donor head that contains streptavidin. Thus phosphorylated substrate is bound by antibody and streptavidin, bringing the donor and acceptor heads into close proximity when kinase is not inhibited. The donor produces singlet oxygen which results in emission from the acceptor when they are in close proximity. Conversely, when kinase is inhibited, the donor and acceptor beads are not associated and the emission from the acceptor is reduced.
AlphaScreen assays were done using compounds dissolved in DMSO to a concentration of 20 mM. The compounds were diluted accordingly to the desired final concentrations in each sample well, using 1:3 serial dilution for a total of 8 concentration points.

[2] = target: T2, Stk6 (Homo sapiens, UniProt O14965); experiment: Z'-Lyte FRET kinase assay (Invitrogen), Stk6; details: read-out: IC50, activity toward kinase Stk6
T2 construct: purchased Invitrogen (Carlsbad, Calif.), screening service
T2 sequence (O14965 1-403): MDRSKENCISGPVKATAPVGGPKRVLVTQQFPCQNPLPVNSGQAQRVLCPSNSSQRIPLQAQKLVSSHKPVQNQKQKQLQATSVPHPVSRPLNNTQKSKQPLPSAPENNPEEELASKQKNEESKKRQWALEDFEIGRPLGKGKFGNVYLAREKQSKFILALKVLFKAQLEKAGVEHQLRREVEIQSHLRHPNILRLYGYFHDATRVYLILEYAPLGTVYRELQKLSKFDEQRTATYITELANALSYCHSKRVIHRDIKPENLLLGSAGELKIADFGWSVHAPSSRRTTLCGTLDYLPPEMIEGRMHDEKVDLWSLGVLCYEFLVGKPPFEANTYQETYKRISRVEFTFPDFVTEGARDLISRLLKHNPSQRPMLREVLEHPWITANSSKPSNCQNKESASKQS

[3] = target: T3, Kdr (Homo sapiens, UniProt P35968); experiment: Z'-Lyte FRET kinase assay (Invitrogen), Kdr; details: read-out: IC50, activity toward kinase Kdr
T3 construct: purchased Invitrogen (assay run by Invitrogen)

[4] = target: T4, Ret (Homo sapiens, UniProt P07949); experiment: AlphaScreen kinase assay, Ret; details: read-out: IC50, activity toward kinase Ret
T4 construct: P1378.pET-SF BI-PTP RET H661-R1012 HIS; made in house
T4 sequence (P07949 with tags, fused parts or gaps): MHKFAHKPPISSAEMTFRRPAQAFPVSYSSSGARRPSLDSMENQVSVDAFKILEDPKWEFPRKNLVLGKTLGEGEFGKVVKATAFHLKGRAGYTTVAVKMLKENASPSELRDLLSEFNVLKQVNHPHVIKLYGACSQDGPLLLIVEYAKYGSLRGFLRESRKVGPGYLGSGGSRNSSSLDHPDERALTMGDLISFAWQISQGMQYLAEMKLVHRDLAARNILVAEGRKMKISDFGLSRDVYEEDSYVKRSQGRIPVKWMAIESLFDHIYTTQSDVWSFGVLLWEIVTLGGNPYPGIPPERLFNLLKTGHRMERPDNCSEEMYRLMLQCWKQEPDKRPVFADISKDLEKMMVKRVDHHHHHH

[5] = target: T5, Kit (Homo sapiens, UniProt P10721); experiment: AlphaScreen kinase assay, Kit; details: read-out: IC50, activity toward kinase Kit
T5 construct: P1332.N6 BI PTP KIT M552-K948-X COD; His6 (N); made in house; host or cells: E. coli (PTP1B co-expressed)

[6] = target: T6, Flt1 (Homo sapiens, UniProt P17948); experiment: AlphaScreen kinase assay, Flt1; details: read-out: IC50, activity toward kinase Flt1
T6 construct: P1826.pETN6 BI-PTP FLT1 M799-D1165-X WT; His6 (N); made in house; host or cells: E. coli (PTP1B co-expressed)
T6 sequence (P17948 with tags, fused parts or gaps): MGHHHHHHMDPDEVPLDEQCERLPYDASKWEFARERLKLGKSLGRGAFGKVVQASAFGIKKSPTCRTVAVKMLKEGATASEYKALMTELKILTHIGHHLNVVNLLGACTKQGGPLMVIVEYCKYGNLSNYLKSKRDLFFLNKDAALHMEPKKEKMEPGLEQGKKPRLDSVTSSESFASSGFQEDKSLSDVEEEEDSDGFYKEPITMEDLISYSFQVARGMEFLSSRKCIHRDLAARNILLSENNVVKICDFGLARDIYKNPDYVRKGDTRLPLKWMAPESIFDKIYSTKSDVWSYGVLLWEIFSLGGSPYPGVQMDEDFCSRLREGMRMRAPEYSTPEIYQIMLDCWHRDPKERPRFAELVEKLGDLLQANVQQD

[7] = target: T7, Jnk1 (Homo sapiens, UniProt P45983); experiment: AlphaScreen kinase assay, Jnk1; details: read-out: IC50, activity toward kinase Jnk1
T7 construct: purchased Upstate Biotechnology

[8] = target: T8, Jnk2 (Homo sapiens, UniProt P45984); experiment: AlphaScreen kinase assay, Jnk2; details: read-out: IC50, activity toward kinase Jnk2
T8 construct: purchased Roche Protein Expression Group (Indianapolis, IN)
How it was run: (§1)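 Eight concentrations per compound (1:3 serial dilution of 20 mM DMSO stock) were tested. Read-out: AlphaScreen signal from phospho-antibody acceptor and streptavidin donor beads bound to biotinylated peptide substrate, reduced on kinase inhibition.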

[9] = target: T9, Abl (Homo sapiens, UniProt P00519); experiment: AlphaScreen kinase assay, Abl; details: read-out: activity toward kinase Abl, IC50
T9 construct: P1121. pET-SPEC BI-PTP Abl G227-V515-X; His6 (N); made in house; host or cells: E. coli (PTP1B co-expressed)
T9 sequence (P00519 with tags, fused parts or gaps): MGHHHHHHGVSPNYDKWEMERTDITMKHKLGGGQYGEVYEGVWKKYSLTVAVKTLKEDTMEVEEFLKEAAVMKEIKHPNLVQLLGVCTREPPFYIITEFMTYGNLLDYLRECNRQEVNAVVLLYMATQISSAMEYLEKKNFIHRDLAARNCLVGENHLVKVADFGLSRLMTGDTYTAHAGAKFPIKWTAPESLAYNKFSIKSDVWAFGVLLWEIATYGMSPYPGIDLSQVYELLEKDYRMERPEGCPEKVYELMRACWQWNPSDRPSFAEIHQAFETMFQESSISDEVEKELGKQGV
How it was run: as §1

[10] = target: T10, FGFR1 (Homo sapiens, UniProt P11362, C488A/C584S); experiment: AlphaScreen kinase assay, FGFR1; details: read-out: IC50, activity toward kinase FGFR
T10 construct: P1351.pET N6 BI-PTP FGFR A458-E765-X C488A, C584S; made in house; host or cells: E. coli (PTP1B co-expressed)

[11] = target: T11, Flt4 (Homo sapiens, UniProt P35916); experiment: AlphaScreen kinase assay, Flt4; details: read-out: IC50, activity toward kinase Flt4
T11 construct: purchased ProQinase GmbH (Freiburg, Germany)
How it was run: as §1

[12] = target: T12, B-Raf (Homo sapiens, UniProt P15056); experiment: AlphaScreen kinase assay, B-Raf; details: read-out: IC50, activity toward kinase B-Raf
T12 construct: purchased Upstate Biotechnology

[13] = target: T13, Jnk3 (Homo sapiens, UniProt P53779); experiment: AlphaScreen kinase assay, Jnk3; details: read-out: IC50, activity toward kinase Jnk3
T13 construct: purchased Upstate Biotechnology

[14] = target: T14, B-Raf V600E (Homo sapiens, UniProt P15056, V600E); experiment: AlphaScreen kinase assay, B-Raf V600E; details: read-out: IC50, activity toward kinase B-Raf V600E
T14 construct: P4254. pFastBacBD-CDC37 BRAF D437-K722-X, V600E; His6 with pFastBac HT leader (TEV site) (N); made in house; host or cells: Sf9 (baculovirus; chaperone CDC37 co-expressed)

[15] = target: T15, c-Raf-1 (Homo sapiens, UniProt P04049); experiment: AlphaScreen kinase assay, c-Raf-1; details: read-out: IC50, activity toward kinase c-Raf-1
T15 construct: purchased Upstate Biotechnology

[16] = target: T16, Met (Homo sapiens, UniProt P08581); experiment: AlphaScreen kinase assay, Met; details: read-out: IC50, activity toward kinase Met
T16 construct: P1818.pETN6 BI-PTP MET G1056-G1364-X WT; His6 (N); made in house; host or cells: E. coli (PTP1B co-expressed)
How it was run: as §1

[17] = target: T17, Fms (Homo sapiens, UniProt P07333); experiment: AlphaScreen kinase assay, Fms; details: read-out: IC50, activity toward kinase Fms
T17 construct: purchased Upstate Biotechnology

[18] = target: Akt3 (Homo sapiens, UniProt Q9Y243); experiment: AlphaScreen kinase assay, Akt3; details: read-out: IC50, activity toward kinase Akt3
How it was run: as §1

[19] = target: T18, Pyk2 (Homo sapiens, UniProt Q14289); experiment: AlphaScreen kinase assay, Pyk2; details: read-out: IC50, activity toward kinase Pyk2
T18 construct: purchased Upstate Biotechnology

[20] = target: T19, Fak (Homo sapiens, UniProt Q05397); experiment: AlphaScreen kinase assay, Fak; details: read-out: IC50, activity toward kinase Fak
T19 construct: P1358.pFastBacHtb FAK S411-Q686-X; His6 with pFastBacHTb leader (TEV site) (N); made in house; host or cells: Sf9 (baculovirus)

[21] = target: T20, Src (Homo sapiens, UniProt P12931); experiment: AlphaScreen kinase assay, Src; details: read-out: IC50, activity toward kinase Src
T20 construct: P1144. pET-N6 BI-PTP SRC V86-L536-X; made in house

Measured: IC50

T12 sequence (P15056 whole entry): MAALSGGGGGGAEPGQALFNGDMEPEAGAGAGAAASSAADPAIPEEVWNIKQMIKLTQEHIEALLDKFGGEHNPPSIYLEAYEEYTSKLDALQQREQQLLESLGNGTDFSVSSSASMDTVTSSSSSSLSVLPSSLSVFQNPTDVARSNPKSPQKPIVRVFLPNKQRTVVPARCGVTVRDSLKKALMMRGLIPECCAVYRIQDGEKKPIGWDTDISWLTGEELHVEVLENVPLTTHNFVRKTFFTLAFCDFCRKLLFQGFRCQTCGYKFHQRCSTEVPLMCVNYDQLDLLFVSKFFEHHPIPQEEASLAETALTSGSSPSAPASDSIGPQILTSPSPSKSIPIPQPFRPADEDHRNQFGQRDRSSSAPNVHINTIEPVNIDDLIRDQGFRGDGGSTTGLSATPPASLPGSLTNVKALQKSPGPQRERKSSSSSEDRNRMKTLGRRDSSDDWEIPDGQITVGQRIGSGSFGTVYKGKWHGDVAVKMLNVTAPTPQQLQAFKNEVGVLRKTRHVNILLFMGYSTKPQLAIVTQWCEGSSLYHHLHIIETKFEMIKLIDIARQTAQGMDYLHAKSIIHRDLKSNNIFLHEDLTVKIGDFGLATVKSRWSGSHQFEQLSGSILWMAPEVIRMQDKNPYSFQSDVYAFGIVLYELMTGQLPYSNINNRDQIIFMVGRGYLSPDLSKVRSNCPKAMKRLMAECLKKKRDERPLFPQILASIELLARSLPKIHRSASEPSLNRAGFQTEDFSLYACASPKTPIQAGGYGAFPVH
T10 sequence (P11362 458-765 C488A/C584S): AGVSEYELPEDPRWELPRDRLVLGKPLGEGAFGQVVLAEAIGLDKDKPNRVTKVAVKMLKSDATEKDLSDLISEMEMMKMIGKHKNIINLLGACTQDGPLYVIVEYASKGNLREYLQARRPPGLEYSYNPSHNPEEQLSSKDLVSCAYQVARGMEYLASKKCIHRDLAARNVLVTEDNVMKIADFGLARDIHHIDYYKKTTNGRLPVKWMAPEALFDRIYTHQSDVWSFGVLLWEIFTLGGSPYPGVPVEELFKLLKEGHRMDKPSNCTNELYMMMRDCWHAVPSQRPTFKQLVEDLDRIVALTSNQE
T5 sequence (P10721 with tags, fused parts or gaps): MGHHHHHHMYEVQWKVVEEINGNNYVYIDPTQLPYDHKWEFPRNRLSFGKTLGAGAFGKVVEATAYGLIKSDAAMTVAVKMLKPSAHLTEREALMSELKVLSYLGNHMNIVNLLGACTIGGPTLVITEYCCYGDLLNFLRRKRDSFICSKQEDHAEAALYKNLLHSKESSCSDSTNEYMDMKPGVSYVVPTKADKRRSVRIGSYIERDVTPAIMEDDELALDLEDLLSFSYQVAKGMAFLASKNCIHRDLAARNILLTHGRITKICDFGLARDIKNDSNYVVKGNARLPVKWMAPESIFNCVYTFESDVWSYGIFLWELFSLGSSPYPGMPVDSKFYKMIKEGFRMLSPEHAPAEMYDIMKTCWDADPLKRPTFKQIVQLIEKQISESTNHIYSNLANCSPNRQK
T14 sequence (P15056 with tags, fused parts or gaps V600E): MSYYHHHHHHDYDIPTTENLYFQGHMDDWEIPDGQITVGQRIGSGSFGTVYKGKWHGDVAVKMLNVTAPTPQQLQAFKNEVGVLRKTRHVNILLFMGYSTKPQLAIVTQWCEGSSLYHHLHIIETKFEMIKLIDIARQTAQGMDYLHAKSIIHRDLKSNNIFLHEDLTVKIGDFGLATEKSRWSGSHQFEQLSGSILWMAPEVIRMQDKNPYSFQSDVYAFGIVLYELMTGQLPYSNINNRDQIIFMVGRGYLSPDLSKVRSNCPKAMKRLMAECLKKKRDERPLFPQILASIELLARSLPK
T17 sequence (P07333 20-972): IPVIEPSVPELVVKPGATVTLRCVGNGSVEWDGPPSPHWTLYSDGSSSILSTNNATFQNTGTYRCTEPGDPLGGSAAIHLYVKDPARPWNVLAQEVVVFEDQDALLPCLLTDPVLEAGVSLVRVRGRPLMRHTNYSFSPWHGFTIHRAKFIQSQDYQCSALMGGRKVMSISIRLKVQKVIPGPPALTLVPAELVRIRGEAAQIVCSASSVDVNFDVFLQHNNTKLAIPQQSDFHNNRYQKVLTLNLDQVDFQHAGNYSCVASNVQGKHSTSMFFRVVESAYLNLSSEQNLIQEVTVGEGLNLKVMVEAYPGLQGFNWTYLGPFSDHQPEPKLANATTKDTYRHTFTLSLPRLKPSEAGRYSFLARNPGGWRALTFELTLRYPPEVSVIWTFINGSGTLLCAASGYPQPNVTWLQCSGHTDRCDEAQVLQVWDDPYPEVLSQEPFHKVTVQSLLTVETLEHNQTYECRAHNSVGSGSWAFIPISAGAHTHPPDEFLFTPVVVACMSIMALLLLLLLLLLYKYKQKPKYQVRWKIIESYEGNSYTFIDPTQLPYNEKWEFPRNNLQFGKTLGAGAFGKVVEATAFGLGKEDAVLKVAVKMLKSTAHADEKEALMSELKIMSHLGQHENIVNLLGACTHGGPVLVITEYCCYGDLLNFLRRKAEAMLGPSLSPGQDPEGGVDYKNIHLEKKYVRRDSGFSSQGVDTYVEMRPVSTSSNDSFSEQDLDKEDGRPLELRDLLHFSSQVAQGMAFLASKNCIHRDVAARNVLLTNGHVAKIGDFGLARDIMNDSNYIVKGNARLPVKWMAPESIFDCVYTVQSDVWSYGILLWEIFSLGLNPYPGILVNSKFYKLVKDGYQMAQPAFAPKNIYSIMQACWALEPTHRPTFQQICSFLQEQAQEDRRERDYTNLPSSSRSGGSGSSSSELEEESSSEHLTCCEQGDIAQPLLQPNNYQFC
T3 sequence (P35968 20-1356): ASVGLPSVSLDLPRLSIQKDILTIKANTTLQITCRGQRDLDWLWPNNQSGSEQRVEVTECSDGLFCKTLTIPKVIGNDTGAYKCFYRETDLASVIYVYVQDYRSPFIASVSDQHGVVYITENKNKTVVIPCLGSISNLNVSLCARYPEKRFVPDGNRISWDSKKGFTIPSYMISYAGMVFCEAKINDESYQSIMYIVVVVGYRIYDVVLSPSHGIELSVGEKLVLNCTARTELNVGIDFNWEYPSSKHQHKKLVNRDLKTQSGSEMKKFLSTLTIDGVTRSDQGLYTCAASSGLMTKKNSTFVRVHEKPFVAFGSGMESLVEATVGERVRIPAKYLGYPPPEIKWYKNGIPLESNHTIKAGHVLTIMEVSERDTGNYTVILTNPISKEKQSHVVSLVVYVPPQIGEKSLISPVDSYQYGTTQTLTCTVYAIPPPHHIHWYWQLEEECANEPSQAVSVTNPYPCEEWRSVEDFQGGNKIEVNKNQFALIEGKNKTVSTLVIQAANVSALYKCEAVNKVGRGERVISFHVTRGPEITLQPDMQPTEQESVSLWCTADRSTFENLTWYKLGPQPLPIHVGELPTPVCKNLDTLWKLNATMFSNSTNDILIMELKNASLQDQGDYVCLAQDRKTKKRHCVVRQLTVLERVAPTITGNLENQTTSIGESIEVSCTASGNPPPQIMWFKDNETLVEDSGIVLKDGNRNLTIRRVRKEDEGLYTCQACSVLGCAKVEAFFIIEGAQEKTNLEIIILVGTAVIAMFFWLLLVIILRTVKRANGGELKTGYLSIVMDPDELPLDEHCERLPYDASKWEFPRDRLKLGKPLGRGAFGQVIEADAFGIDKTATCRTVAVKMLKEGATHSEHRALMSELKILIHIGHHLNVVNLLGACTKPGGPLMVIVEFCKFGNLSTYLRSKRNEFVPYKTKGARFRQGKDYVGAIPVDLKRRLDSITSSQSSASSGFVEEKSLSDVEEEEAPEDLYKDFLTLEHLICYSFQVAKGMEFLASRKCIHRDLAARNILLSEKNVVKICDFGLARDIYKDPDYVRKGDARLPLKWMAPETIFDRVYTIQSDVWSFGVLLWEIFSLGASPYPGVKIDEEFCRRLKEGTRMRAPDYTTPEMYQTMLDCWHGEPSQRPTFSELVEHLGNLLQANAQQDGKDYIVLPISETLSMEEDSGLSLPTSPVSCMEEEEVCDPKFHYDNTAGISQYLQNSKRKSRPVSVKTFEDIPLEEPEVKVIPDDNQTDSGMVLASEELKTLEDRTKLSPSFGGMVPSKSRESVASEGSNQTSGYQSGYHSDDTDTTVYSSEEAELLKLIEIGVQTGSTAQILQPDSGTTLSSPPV
Chain of Akt3 (Q9Y243 whole entry): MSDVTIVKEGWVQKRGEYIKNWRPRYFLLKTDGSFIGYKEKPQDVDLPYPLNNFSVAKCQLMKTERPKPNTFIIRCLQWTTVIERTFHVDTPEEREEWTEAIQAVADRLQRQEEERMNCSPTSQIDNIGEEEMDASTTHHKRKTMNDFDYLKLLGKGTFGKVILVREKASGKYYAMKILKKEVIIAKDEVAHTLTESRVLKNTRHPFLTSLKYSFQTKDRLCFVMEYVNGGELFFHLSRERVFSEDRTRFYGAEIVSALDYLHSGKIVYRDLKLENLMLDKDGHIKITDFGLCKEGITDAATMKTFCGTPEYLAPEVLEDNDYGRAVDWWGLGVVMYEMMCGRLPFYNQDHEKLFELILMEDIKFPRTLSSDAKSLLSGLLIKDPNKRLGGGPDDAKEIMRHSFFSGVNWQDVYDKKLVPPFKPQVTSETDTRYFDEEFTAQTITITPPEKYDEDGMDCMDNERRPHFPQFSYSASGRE
T13 sequence (P53779 whole entry): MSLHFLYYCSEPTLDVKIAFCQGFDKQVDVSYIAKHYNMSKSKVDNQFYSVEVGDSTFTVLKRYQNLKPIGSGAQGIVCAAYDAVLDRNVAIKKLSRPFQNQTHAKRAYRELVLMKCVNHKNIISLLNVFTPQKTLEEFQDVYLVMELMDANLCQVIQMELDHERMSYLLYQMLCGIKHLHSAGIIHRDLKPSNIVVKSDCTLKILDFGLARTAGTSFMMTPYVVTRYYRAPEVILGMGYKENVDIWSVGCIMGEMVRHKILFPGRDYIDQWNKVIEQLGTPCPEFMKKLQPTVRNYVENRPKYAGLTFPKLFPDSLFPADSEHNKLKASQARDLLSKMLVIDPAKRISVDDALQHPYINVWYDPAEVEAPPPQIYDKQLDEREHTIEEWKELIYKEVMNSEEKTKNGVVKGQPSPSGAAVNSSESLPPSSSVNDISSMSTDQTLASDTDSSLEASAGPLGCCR

CS(=O)(=O)c1cccc(-c2cnc3[nH]ccc3c2)c1 [Compound P-0173, 5-(3-Methanesulfonyl-phenyl)-1H-pyrrolo[2,3-b]pyridine]
≤ 10 µM: [1] | [2] | [3]

COc1cccc(C(=O)c2c[nH]c3ncc(-c4cccc(N)c4)cc23)c1 [Compound P-0579]
not listed: [2] | [15] | [16] | [17] | [18] | [19] | [20] | [21]
≤ 10 µM: all other assays above

Oc1cccc(Cc2c[nH]c3ncc(-c4cccnc4)cc23)c1F [Compound P-0778, 2-Fluoro-3-(5-pyridin-3-yl-1H-pyrrolo[2,3-b]pyridin-3-ylmethyl)-phenol]
≤ 10 µM: [4] | [15] | [5] | [16] | [12] | [1] | [13] | [17] | [14]

c1cc(Nc2ccc(N3CCCCC3)cc2)c2cc[nH]c2n1 [Compound P-0883]
≤ 10 µM: [18] | [15] | [12] | [1] | [19] | [17]

CCN(CC)c1ccc(Nc2cnc3[nH]ccc3c2)cc1 [Compound P-0951]
≤ 10 µM: [18] | [5] | [6] | [16] | [10] | [1] | [20] | [13] | [14] | [3]

c1cc2cc(Nc3ccc(N4CCCCC4)cc3)cnc2[nH]1 [Compound P-1016]
≤ 10 µM: [18] | [5] | [1] | [13] | [14]

NC(=O)c1cccc(-c2cnc3[nH]cc(Cc4ccccc4O)c3c2)c1 [Compound P-1385]
≤ 10 µM: [5] | [7] | [10] | [21] | [12] | [1] | [20] | [13] | [17] | [14]
